{"source": "patent US20240243327A1", "about": "“NAPHTHALENE DIIMIDE COMPOUND AND REDOX FLOW BATTERY CONTAINING THE SAME” (Korea Advanced Institute of Science and Technology, priority 2023, published 2024)", "assay": "Analysis of solubility (UV-Vis calibration at 361 nm, saturated solution at room temperature)", "type": "physicochemical", "conditions": "for solubility: thermodynamic from solid", "protocol": "First, the compound was dissolved in 2 mL of deionized water (DI water), and then the UV-Vis spectrum of the solution was measured. 1 mL of the solution was taken out, 1 mL of deionized water was added to reduce the concentration by half, and then the UV-Vis spectrum was measured. This process was repeated several times. A calibration curve was drawn using λ=361 nm (π-π* transition) from the UV-Vis spectrum. At this time, a UV-Vis spectrum of deionized water was used for baseline measurement. […] The solution was filtered, and then the total volume of the solution was recorded. […] of the filtrate was taken, and then deionized water was added to bring the volume to 2 mL. Thereafter, 1 mL of the solution was taken and fresh deionized water was added to dilute the solution to a volume of 2 mL. The UV-Vis spectrum was recorded until the absorbance at λ=361 nm was smaller than 1 a.u. The linear equation of the calibration curve was used to calculate the concentration of the solution, and the molarity equation was used to estimate the maximum solubility of the compound.", "note": "Read-outs that look alike come from different tables or passages of the source."}
{"smiles": "CN1C(=O)c2ccc3c4c(ccc(c24)C1=O)C(=O)N(C)C3=O", "note": "[Comparative Example 1, 2,7-dimethylbenzo [lmn] [3,8] phenanthroline-1,3,6,8 (2H,7H) -tetraone]", "values": [{"measurement": "solubility in water", "setting": "deionized water, room temperature, result in words", "value": "substantially insoluble in water"}]}
{"smiles": "O=C(O)CN1C(=O)c2ccc3c4c(ccc(c24)C1=O)C(=O)N(CC(=O)O)C3=O", "note": "[Comparative Example 2, 2,2′-(1,3,6,8-tetraoxo-1,3,6,8-tetrahydrobenzo [lmn] [3,8]phenanthroline-2,7-diyl)diacetate Potassium]", "values": [{"measurement": "solubility", "setting": "saline or isotonic, 1 M KCl solution as printed, read-out: solubility in the 1 M KCl solution", "value": "~25", "unit": "mM"}]}
{"smiles": "C[N+](C)(C)CCC[N+](C)(C)CCCN1C(=O)c2ccc3c4c(ccc(c24)C1=O)C(=O)N(CCC[N+](C)(C)CCC[N+](C)(C)C)C3=O", "note": "[Example 1]", "values": [{"measurement": "solubility", "setting": "1.5 M KCl aqueous solution, saline or isotonic, KCl aqueous solution (method: 1.5 M KCl), room temperature, read-out: solubility in the KCl solution", "value": "~1200", "unit": "mM"}, {"measurement": "solubility", "setting": "deionized water, room temperature, read-out: solubility in water", "value": "~1500", "unit": "mM"}]}
